Test results published in patent publication US6133311A, “Method for preventing or treating elevated blood lipid level-related diseases by administering natural phenolic compounds” (priority 1998, dated 2000).

Experiments:
[1] = test system: main artery (arterial endothelium); assay: analysis for fatty streak in the main artery of rabbits; type: in vivo, New Zealand White rabbits; conditions: for Fatty streak (proportion of stained region to total arterial area): 1% cholesterol diet plus 0.1% compound (Lovastatin 1 mg/kg), Control 35 ± 14; for layer of macrophage-lipid complex on the arterial endothelium: FIGS. 1B and 1C, control: thick layer
Procedure: (§1) 30 three-month-old male New Zealand White rabbits (Yeonam Horticulture and Animal Husbandry College, Korea), each weighing about 2.5 to 2.6 kg, were raised under a condition of temperature 20+2° C., relative humidity 55±5%, and photoperiod 12L/12D. The rabbits were divided into 5 groups and 5 groups of rabbits were fed with 5 different diets, i.e., RC4 diet (Oriental Yeast Co., Japan) containing 1% cholesterol (Control group, 1); 1% cholesterol plus 1 mg/kg Lovastatin® (Merck, U.S.A.) (Lovastatin® group, 2); 1% cholesterol plus 0.1% tannin (3); 1% cholesterol plus 0.1% gallic acid (4); and 1% cholesterol plus 0.1% ellagic acid (5), respectively. RC4 diet comprises 7.6% moisture, 22.8% crude protein, 2.8% crude fat, 8.8% crude ash, 14.4% crude cellulose and 43.6% soluble nitrogen-free substances. Tannin, gallic acid and ellagic acid were purchased from Sigma Chemical Co. (St. Louis, Mo.).
(§2) The rabbits were fed for 6 weeks while being allowed free access to the diets and water.
(Step 3) Analysis for fatty streak in the main artery
The chest of each of the rabbits sacrificed in Step 2 was incised. The downward portion of the main artery from the site 1 cm above the aortic valve was cut out in a length of about 5 cm and the fat surrounding the main artery was removed. The main artery was incised in the middle along the longitudinal axis and pinned to a dish. The moist artery was photographed and, then, the staining of fatty streaks was carried out in accordance with the method of Esper, E., et al. (J. Lab. Clin. Med., 121, 103-110 (1993)) as follows.
A part of the incised main artery was washed three times with anhydrous propylene glycol for 2 min. and stained for 30 min. with a saturated solution of Oil Red O (ORO, Sigma Co.) dissolved in propylene glycol. Thereafter, the artery was washed twice with 85% propylene glycol for 3 min. to remove remaining staining solution and, then washed with physiological saline. The artery was photographed and the photograph was traced. The area of stained region (fatty streak region) was determined with an image analyzer (LEICA, Q-600, Germany) and its proportion (%) to the total arterial area was calculated.
FIGS. 1A, 1B and 1C show the arteries of the rabbits administered with 1% cholesterol (Control group); 1% cholesterol plus 1 mg/kg Lovastatin® (Lovastatin® group); 1% cholesterol plus 0.1% ellagic acid, respectively.

[2] = test system: liver cells around the central vein; assay: fatty liver: proportion of abnormal fat-containing cells in the liver of rabbits; type: in vivo, New Zealand White rabbits; conditions: for A: Proportion of abnormal fat-containing liver cells (grade): 1% cholesterol diet plus 0.1% compound (Lovastatin 1 mg/kg), mean of grades 1+ to 4+, Control 3.2 ± 0.3; for microscopic features of the liver: FIGS. 2B and 2C, around the central vein
Procedure: as §1, §2
(Step 5) Prevention of Hepatic Diseases

[3] = chemical analysis of blood of rabbits fed a high-cholesterol diet; type: in vivo, New Zealand White rabbits; conditions: for TG (triglyceride): Control 56 ± 38; for TC (total cholesterol): Control 1143 ± 260
Procedure: Effect of Tannin, Gallic acid or Ellagic acid in an Animal
(Step 1) Administration of tannin, gallic acid or ellagic acid to rabbits
as §1, §2
(Step 2) Chemical Analysis of Blood
After six weeks, the rabbits were anesthetized with an intramuscular injection of ketamine (50 mg/kg) in the femoral region and sacrificed. A blood sample was taken from the heart of each rabbit, allowed to stand for 2 hours and centrifuged at 3,000 rpm for 15 minutes and the supernatant serum was separated and stored in a freezer before use.
The chemical analysis of blood was carried out by employing a blood chemical analyzer (CIBA Corning 550 Express, USA) to determine the changes in GOT, GPT, γGTP, total cholesterol, HDL-cholesterol and triglyceride levels.

[4] = test system: LDL receptor in the liver; conditions: Farmer, J. A., et al. (1995), cited from earlier work; for plasma LDL cholesterol level: by enhancing the activity of LDL receptor in the liver
[5] = rabbits, 1% cholesterol diet plus 0.1% compound (Lovastatin 1 mg/kg), 6 weeks

SMILES | Fatty streak (proportion of stained region to total arterial area) ([1]; 6 weeks) [%] | plaque formation in the endothelium of the main artery ([1]; 6 weeks) | layer of macrophage-lipid complex on the arterial endothelium ([1]; 6 weeks) | deposition of macrophages on the arterial endothelium ([1]; blood cholesterol level high) | A: Proportion of abnormal fat-containing liver cells (grade) ([2]; 6 weeks) | inhibition of the formation of fatty liver ([2]; 1% cholesterol diet, 6 weeks) | microscopic features of the liver [2] | effect on the liver function (adverse) ([3]; rabbit, in vivo) | TG (triglyceride) [3, 5] [mg/dL] | TC (total cholesterol) [3, 5] [mg/dL] | lipid metabolism and liver function ([3]; rabbits, 6 weeks) | plasma LDL cholesterol level [4] | side effects [4] | γGTP ([3]; rabbits, 1% cholesterol diet plus 0.1% compound (Lovastatin 1 mg/kg), 6 weeks, Control 4.2 ± 0.9) [IU/l] | GPT ([3]; rabbits, 1% cholesterol diet plus 0.1% compound (Lovastatin 1 mg/kg), 6 weeks, Control 65 ± 9) [IU/l] | GOT ([3]; rabbits, 1% cholesterol diet plus 0.1% compound (Lovastatin 1 mg/kg), 6 weeks, Control 77 ± 8) [IU/l]
O=c1oc2c(O)c(O)cc3c(=O)oc4c(O)c(O)cc1c4c23 [Ellagic acid, ellagic acid] | 9 ± 2 | inhibit | no or very thin layers of macrophage-lipid complex | strongly inhibit | 2.7 | significantly inhibit the formation of fatty liver | almost all liver cells are of a normal shape | do not adversely affect on the liver function | 25 ± 10 | 1000 ± 105 | can improve | – | – | – | – | –
CCC(C)(C)C(=O)O[C@H]1C[C@@H](C)C=C2C=C[C@H](C)[C@H](CC[C@@H]3C[C@@H](O)CC(=O)O3)[C@H]21 [Simvastatin®] | – | – | – | – | – | – | – | – | – | – | – | may reduce the plasma LDL cholesterol level | – | – | – | –
CC[C@H](C)C(=O)O[C@H]1C[C@@H](C)C=C2C=C[C@H](C)[C@H](CC[C@@H]3C[C@@H](O)CC(=O)O3)[C@H]21 [Lovastatin®, reference compound] | 5 | – | no or very thin layers of macrophage-lipid complex | – | 3.4 ± 0.5 | – | many cells containing excessive fat were observed around the central vein | – | 66 ± 17 | 1210 ± 263 | – | may reduce the plasma LDL cholesterol level | increase in creatine kinase in the liver and rhabdomyolysis | 12.4 ± 0.8 | 73 ± 9 | 125 ± 19
